From the Kinase Knowledgebase extract (Sharma et al. 2016) come the findings set out here.

In the assay the target is MAPK14 (human) (UniProt Q16539). Briefly: Inhibition of MAPK14 Kinase Activity.
Sequence of MAPK14 (human) (Q16539 whole entry, looked up): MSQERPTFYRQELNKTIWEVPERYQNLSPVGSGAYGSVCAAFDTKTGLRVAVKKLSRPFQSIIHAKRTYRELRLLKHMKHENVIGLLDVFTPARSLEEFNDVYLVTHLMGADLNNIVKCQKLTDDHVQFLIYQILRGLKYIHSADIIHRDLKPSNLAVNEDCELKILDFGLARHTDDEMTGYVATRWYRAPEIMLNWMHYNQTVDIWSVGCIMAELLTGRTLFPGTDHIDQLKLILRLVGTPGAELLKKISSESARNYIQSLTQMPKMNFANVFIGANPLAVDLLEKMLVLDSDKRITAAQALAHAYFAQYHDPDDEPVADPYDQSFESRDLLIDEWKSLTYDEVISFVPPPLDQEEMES
In general, IC50 refers to the point on the concentration scale where inhibition reaches its midpoint. For the molecule `CC(C)Cn1c(N)nc2ccc(-c3[nH]c(C4CC4)nc3-c3ccc(F)cc3F)cc21`, the IC50 was at most 5 µM.

As for `CC(C)n1c(N)nc2ccc(-c3n[nH]nc3-c3ccccc3)cc21`, the IC50 is at most 5 µM.

Take `CC(C)Cn1c(N)nc2ccc(-c3[nH]c(C4CC4)nc3-c3ccc(F)cc3)cc21`: the IC50 is at most 5 µM.

Consider `CCCn1cnc2ccc(-c3[nH]c(-c4c(F)cccc4F)nc3-c3ccccc3)cc21`, for which the IC50 is at most 5 µM.

Consider `Nc1nc2ccc(-c3[nH]c(-c4c(F)cccc4F)nc3-c3ccccc3)cc2n1Cc1cccc(F)c1`, for which the IC50 is at most 5 µM.

Consider `CCOCN1=NC(=C(N1)c2ccc3nc(N)n(CC(C)C)c3c2)c4ccccc4`, for which the IC50 was at most 5 µM.

For `CC(C)(C)Cn1c(N)nc2ccc(-c3[nH]c(-c4c(F)cccc4Cl)nc3-c3ccc(F)cc3F)cc21`, the IC50 was at most 5 µM.

`Nc1nc2ccc(-c3[nH]c(-c4c(F)cccc4F)nc3-c3ccccc3)cc2n1Cc1ccccc1` came in with an IC50 of at most 5 µM.

`CC(C)n1c(N)nc2ccc(-c3[nH]c(-c4ccccc4)nc3-c3ccccc3)cc21` showed an IC50 of at most 5 µM.

Molecule `CC(C)Cn1c(N)nc2ccc(-c3[nH]c(C(F)(F)F)nc3-c3ccccc3)cc21` registered an IC50 of at most 5 µM.

Turning to `CC(C)C(C)n1c(N)nc2ccc(-c3[nH]c(-c4c(F)cccc4F)nc3-c3ccccc3)cc21` (stereo unspecified), the concentration for half-maximal inhibition (IC50) is at most 5 µM.

`CC(C)Cn1c(N)nc2ccc(-c3[nH]c(C(C)C)nc3-c3ccccc3)cc21` gave an IC50 of at most 5 µM.

As for `CC(C)Cn1c(N)nc2ccc(-c3[nH]c(-c4ccccc4C(F)(F)F)nc3-c3ccccc3)cc21`, the IC50 is at most 5 µM.

As to `CC(C)(C)Cn1c(N)nc2ccc(-c3[nH]c(C4CC4)nc3-c3ccccc3)cc21`, the IC50 was at most 5 µM.

Consider `CC(n1c(N)nc2ccc(-c3[nH]c(-c4c(F)cccc4F)nc3-c3ccccc3)cc21)C(C)(C)C` (stereo unspecified), for which the IC50 was at most 5 µM.

As to `CCCCn1cnc2ccc(-c3[nH]c(-c4c(F)cccc4F)nc3-c3ccccc3)cc21`, the IC50 is at most 5 µM.

Turning to `CC(C)Cn1c(N)nc2ccc(-n3ccnc3-c3ccccc3)cc21`, the IC50 was at most 5 µM.

As for `C[C@@H](n1c(N)nc2ccc(-c3[nH]c(-c4c(Cl)cccc4Cl)nc3-c3ccccc3)cc21)C(C)(C)C`, the IC50 was at most 5 µM.

`CC(C)Cn1c(N)nc2ccc(-c3nc(-c4c(F)cccc4Cl)[nH]c3-c3ccc(F)cc3)cc21`: the IC50 is at most 5 µM.

Turning to `CC(C)Cn1cnc2ccc(-c3c(-c4ccccc4)ncn3C3CCCCC3)cc21`, the IC50 was at most 5 µM.

`CC(C)Cn1c(N)nc2ccc(-c3[nH]c(-c4c(F)cccc4Cl)nc3-c3ccc(F)cc3F)cc21` showed an IC50 of at most 5 µM.

As for `CCCCn1c(N)nc2ccc(-c3[nH]c(-c4c(F)cccc4F)nc3-c3ccccc3)cc21`, the IC50 is at most 5 µM.

In the case of `CC(C)Cn1c(N)nc2ccc(-c3c(-c4ccccc4)nc(-c4ccc(Cl)cc4)n3C)cc21`, the IC50 is at most 5 µM.

`C[C@@H](n1c(N)nc2ccc(-c3[nH]c(-c4c(F)cccc4Cl)nc3-c3ccccc3)cc21)C(C)(C)C` gave an IC50 of at most 5 µM.

As to `Cc1nc(-c2ccc(F)cc2F)c(-c2ccc3ncn(CC(C)C)c3c2)[nH]1`, the IC50 was at most 5 µM.

As for `CC(C)(C)Cn1c(N)nc2ccc(-c3nc(-c4c(Cl)cccc4Cl)[nH]c3-c3ccc(F)cc3F)cc21`, the IC50 was at most 5 µM.

Consider `CCCn1c(N)nc2ccc(-c3[nH]c(-c4c(F)cccc4F)nc3-c3ccccc3)cc21`, for which the IC50 is at most 5 µM.

`CC(C)Cn1c(N)nc2ccc(-c3c(-c4ccc(F)cc4)ncn3C)cc21` gave an IC50 of at most 5 µM.

As for `Cn1cnc2ccc(-c3[nH]c(-c4c(F)cccc4F)nc3-c3ccccc3)cc21`, the IC50 was at most 5 µM.

On to `CC(C)Cn1c(N)nc2ccc(-c3cn(C)nc3-c3ccc(F)cc3)cc21`, for which the IC50 is at most 5 µM.

For the molecule `CCOCn1nc(-c2ccccc2)c(-c2ccc3nc(N)n(CC(C)C)c3c2)n1`, the IC50 is at most 5 µM.
